Laboratory results taken from patent US5242942A, “Anticonvulsant fructopyranose cyclic sulfites and sulfates” (McNeilab, Inc., priority 1992, dated 1993).

Columns and labels:
Total Acid Output = experiment: pylorus-ligated rat test, gastric antisecretory activity; assay type: in vivo, rat (male Charles River Sprague-Dawley derived); conditions: IP, 200 mg/kg
Description: The gastric antisecretory activity of the compounds shown in Table II was determined by the pylorus-ligated rat test described by Shay et al. in Gastroenterol. 1954, 26, 906. In this method, male Charles River Sprague-Dawley derived rats weighing 150-300 grams were deprived of food but not water for 18-24 hours prior to use. Water was withheld during the experiment, however. The rats were weighed, lightly anesthetized with ether and the pylorus ligated according to the method of Shay et al., supra. The treatment or vehicle control was then administered intraperitoneally (IP) or orally (PO). When administered by the IP route, the administration was done 30 minutes before ligation. When administered by the PO route, the administration was done prior to ligation (about 1/2 to 3 hours before). Rats were housed two per cage and sacrificed with carbon dioxide 3 hours after ligation. Their stomachs were removed, rinsed, and contents emptied into a graduated centrifuge tube. The tubes were centrifuged, the volume of gastric juice was recorded, and any samples obviously contaminated by feces, food or blood were eliminated. A 1 mL aliquot of gastric juice was titrated with 0.1N NaOH to a pH of 7.0-7.4. The volume of gastric juice secreted, the acid concentration, and the product of the volume times the concentration, i.e. the total amount of acid secreted, were measured. The total acid output was calculated by multiplying the volume of gastric juices collected times the hydrogen ion concentration (amount of NaOH added to a sample to reach a pH of 7.0-7.4) and dividing that value by 10. The mean value of the total acid output for a control group of rats was then subtracted from the mean value of the total acid output for the group of rats tested at the same dose. That value was then divided by the mean value of total acid output for the control group and the resulting number was multiplied by 100 to provide a Percent Inhibition value, which values are reported in Table II. The […] was determined statistically as the dose at which a 50% inhibition would be realized.

tonic extensor seizure = experiment: maximal electroshock test (MES); assay type: in vivo, mouse (albino male CRS-CD1); conditions: PO, mouse, 4 hr, read-out: % Block (MES Test, mouse)
Description: The compounds of formula (I) are particularly useful as anticonvulsant agents in mammals including humans. The anticonvulsant activity of the subject compounds was determined using a standard "maximal electroshock test" (MES). In this test, activity is indicated by a block of the […] extensor seizure caused by application of an electric shock to mice via corneal electrodes, as described by Swinyard et al. in J. Pharmacol. Expt. Ther. 1952, 106, 319, and recorded as % block. A more recent description of current anticonvulsant drug screening is given by Swinyard in Epilepsia 1978, 19, 409. The anticonvulsant activity of the compounds of this invention tested according to the Swinyard 1952 method is shown in the following Table I.
In the test, albino male CRS-CD1 mice weighing between 18-25 g were used in all experiments (obtained from Charles River). They were allowed food and water ad libitum and were used only once. The electroshock apparatus and the corneal electrodes were purchased from Wahlquist Instrument Company, Salt Lake City, Utah.
Maximal electroshock seizures were induced by the delivery of a 60 Hertz (Hz) current of 50 milliamps (mA) intensity to the mouse through corneal electrodes for 0.2 seconds as originally described by Swinyard et al. (1952). This stimulus intensity is approximately 4 to 6 times the current producing 100% tonic extensor convulsions. During the validation of the MES test, the duration of the various seizure components following maximal electroshock were measured as follows: hindleg tonic flexion was measured from the time of the application of the stimulus to the time of onset of hindleg tonic extension (i.e. when the hindlegs deviate by greater than an angle of 90° from the torso), hindleg tonic extensor was measured from the time of extensor thrust to the onset of generalized clonus, and terminal clonus was measured from the beginning to the end of bilateral rhythmic clonic jerking. Mortality was also recorded. The duration of each seizure component agreed well with the values previously reported by Tedeschi et al. in J. Pharmacol. Expt. Ther. 1955, 116, 107. The corneal electrodes were concave so that saline could be applied to the electrodes to reduce mortality. If this procedure is followed, mortality should always be less than 40% in control mice. Thus, at an electroshock stimulus of 60 Hz, 50 mA and 0.2 seconds duration, the order of convulsive components and the percentage of control animals displaying the behaviors should be as follows: tonic flexion (100%), tonic extension (100%) and clonus (100%) with less than 40% mortality.
For testing compounds, the abolition of the tonic extensor component was the endpoint. Animals were dosed orally (PO) with either vehicle or test drug and at a specified time were given a maximal electric shock through corneal electrodes blotted with saline (as described above). A minimum of 10 animals were used per group and the percentage of animals in the group without tonic hindlimb extension recorded. Determination of ED50 values (that dose of drug inhibiting 50% of the tonic extensor seizures) is shown below in Table I.

rat diuresis study = assay type: in vivo, rat (male Wistar); conditions: 2.5 mg/kg PO, average of five animals
From the text: Evidence for the inhibition of carbonic anhydrase by compounds of the formula (I) can also be obtained by a diuresis study, such as described by A. Weiner in Goodman and Gilman's The Pharmacological Basis of Therapeutics, 8th ed.; Goodman Gilman, A.; Rall, T. W.; Nies, A. S.; Taylor, P., Eds.; Pergamon Press: New York, 1990; pp 716-718. An increase in urine akalinity accompanied with an increase in water intake and urine output provides an indirect indication of carbonic anhydrase inhibition activity. Male Wistar rats having a weight of 250-300 g were dosed orally (PO) and housed in cages that allowed for the quantitative measure of fluid intake and urine output. Water intake and urine output were measured at 24 hours versus control, whereas urine pH, obtained via pH meter, was measured at 4 and 24 hours versus control. The results of this study, which are the average of five animals, are reported below in Table III. […] Such data is also an indication of the usefulness of the compounds of formula (I) as diuretics in the treatment of hypertension, congestive heart failure and other types of edema. The determination of suitable dosages for such compounds for the treatment of hypertension and congestive heart failure and other types of edema is within the skill of the art.

SMILES | Percent Inhibition of Total Acid Output (Total Acid Output) [%] | responders at 75 mg/kg (tonic extensor seizure; 75 mg/kg) [%] | Urine pH (rat diuresis study; 4 hours, control 6.98) | Urine pH (rat diuresis study; 24 hours, control 6.43) | Water Intake (rat diuresis study; 24 hours, control 15.0) [mL] | Urine Output (rat diuresis study; 24 hours, control 17.6) [mL] | responders at 10 mg/kg (tonic extensor seizure; 10 mg/kg) [%]
CC1(C)O[C@H]2[C@@H]3OS(=O)(=O)O[C@@H]3CO[C@@]2(COS(=O)(=O)NC2CCCCCCC2)O1 [Example 11, 2,3-O-(1-Methylethylidene)-4,5-O-sulfonyl-β-D-fructopyranose Cyclooctylsulfamate] | 50 | 30 |  |  |  |  | 
CC1(C)O[C@H]2[C@@H]3OS(=O)(=O)O[C@@H]3CO[C@@]2(COS(=O)(=O)NC2CC2)O1 [Example 9, 2,3-O-(1-Methylethylidene)-4,5-O-sulfonyl-β-D-fructopyranose Cyclopropylsulfamate] | 87 |  | 9.02 | 7.26 | 27.8 | 33.2 | 90
